In US9896441B2 (Lycera Corporation, priority 2014, dated 2018):
pEC50: −log10 of the molar value.

Legend:
[1] = biological target: T1, RORγ-LBD (Homo sapiens, UniProt P51449); assay: RORγ-Ligand Binding Domain (LBD) TR-FRET Assay; type: biochemical; settings: with 2 μM ursolic acid (RORγ antagonist); highest test concentration 10 μM
T1 construct: made in house; host or cells: SF9 cells (baculovirus); used as diluted lysate
T1 sequence (P51449 269-508 limits assumed): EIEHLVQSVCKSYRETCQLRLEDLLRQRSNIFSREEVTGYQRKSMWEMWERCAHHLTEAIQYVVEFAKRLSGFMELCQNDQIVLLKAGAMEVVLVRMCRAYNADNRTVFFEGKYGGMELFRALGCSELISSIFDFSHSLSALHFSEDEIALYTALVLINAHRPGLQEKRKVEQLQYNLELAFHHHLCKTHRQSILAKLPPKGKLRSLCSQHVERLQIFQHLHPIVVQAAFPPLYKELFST
Procedure, shortened: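 Lysate from SF9 cells expressing His-RORγ-LBD is diluted to about 3 nM final in 50 mM Tris pH 7.0 assay buffer. A biotin-tagged SRC1 LXXLL peptide goes in at 200 nM final, plus ursolic acid at 2 μM final. Test compounds carry 1% DMSO final; signal read by TR-FRET.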

[2] = biological target: T2, Gal4-RORγ-LBD (Homo sapiens, UniProt P51449); assay: Gal4-RORγ Luciferase Reporter Assay in HEK-293T Cells; type: cell-based; settings: HEK-293 cells, ursolic acid present, luciferase readout
T2 construct: expressed in transfected cells
T2 sequence (P51449 269-508 limits assumed): T1 sequence (P51449 269-508 limits assumed)
Procedure, shortened: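 Max Response was taken as the upper plateau of a 4-parameter logistic fit of luciferase signal, normalized to 100 for wells without ursolic acid or compound. Transiently Gal4-RORγ-LBD/Gal4-luc transfected HEK-293 cells carrying […] ursolic acid were incubated with test compounds (0.2% DMSO) overnight at 37 °C and read with One-Glo.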

SMILES	pEC50 [1]	pEC50 [2]
CC/C(=C\c1ccc2c(c1)N(S(=O)(=O)c1cccc(C(F)(F)F)c1)C[C@H](CCC(=O)O)O2)C(C)C [Example 191G, (S,E)-3-(6-(2-ethyl-3-methylbut-1-en-1-yl)-4-((3-(trifluoromethyl)-phenyl)sulfonyl)-3,4-dihydro-2H-benzo[b][1,4]oxazin-2-yl)propanoic acid]	> 6.30	> 6.30
CC/C(=C\c1ccc2c(c1)N(S(=O)(=O)c1cccc(C(F)(F)F)c1)C[C@H](CCC(=O)OC)O2)C(C)C [Example 191H, methyl (S,E)-3-(6-(2-ethyl-3-methylbut-1-en-1-yl)-4-((3-(trifluoromethyl)phenyl)sulfonyl)-3,4-dihydro-2H-benzo[b][1,4]-oxazin-2-yl)propanoate]	> 6.30	> 6.30
O=C(O)CC[C@H]1CN(S(=O)(=O)c2cccc(C(F)(F)F)c2)c2cc(C3=CCCC3)ccc2O1 [Example 192, (S)-3-(6-(cyclopent-1-en-1-yl)-4-((3-(trifluoromethyl)phenyl)sulfonyl)-3,4-dihydro-2H-benzo[b][1,4]oxazin-2-yl)propanoic acid]	> 6.30	5.30 to 6.30
O=C(O)CC[C@H]1CN(S(=O)(=O)c2cccc(C(F)(F)F)c2)c2cc(C3=CCCCC3)ccc2O1 [Example 193, (S)-3-(6-(cyclohex-1-en-1-yl)-4-((3-(trifluoromethyl)phenyl)sulfonyl)-3,4-dihydro-2H-benzo[b][1,4]oxazin-2-yl)propanoic acid]	> 6.30	> 6.30
O=C(O)CC[C@H]1CN(S(=O)(=O)c2cccc(C(F)(F)F)c2)c2cc(C3CCCCC3)ccc2O1 [Example 194, (S)-3-(6-cyclohexyl-4-((3-(trifluoromethyl)phenyl)sulfonyl)-3,4-dihydro-2H-benzo[b][1,4]oxazin-2-yl)propanoic acid]	> 6.30	> 6.30
O=C(O)CCC[C@H]1CN(S(=O)(=O)c2cc(C(F)(F)F)cnc2OCCO)c2cc(/C=C/c3c(F)cccc3Cl)ccc2O1 [Example 195B, (S,E)-4-(6-(2-chloro-6-fluorostyryl)-4-((2-(2-hydroxyethoxy)-5-(trifluoro-methyl)pyridin-3-yl)sulfonyl)-3,4-dihydro-2H-benzo[b][1,4]-oxazin-2-yl)butanoic acid]	> 6.30	> 6.30
COC(=O)CCC[C@H]1CN(S(=O)(=O)c2cc(C(F)(F)F)cnc2OCCO)c2cc(/C=C/c3c(F)cccc3Cl)ccc2O1 [Example 195C, methyl (S,E)-4-(6-(2-chloro-6-fluorostyryl)-4-((2-(2-hydroxyethoxy)-5-(trifluoro-methyl)pyridin-3-yl)sulfonyl)-3,4-dihydro-2H-benzo[b][1,4]-oxazin-2-yl)butanoate]	> 6.30	5.30 to 6.30
O=C(O)CCC[C@H]1CN(S(=O)(=O)c2cccc(C(F)(F)F)c2)c2cc(/C=C/c3c(F)cccc3Cl)ccc2O1 [Example 195D, (S,E)-4-(6-(2-chloro-6-fluorostyryl)-4-((3-(trifluoro-methyl)phenyl)sulfonyl)-3,4-dihydro-2H-benzo[b][1,4]oxazin-2-yl)butanoic acid]	> 6.30	> 6.30
COC(=O)CCC[C@H]1CN(S(=O)(=O)c2cccc(C(F)(F)F)c2)c2cc(/C=C/c3c(F)cccc3Cl)ccc2O1 [Example 195E, methyl (S,E)-4-(6-(2-chloro-6-fluorostyryl)-4-((3-(trifluoro-methyl)phenyl)sulfonyl)-3,4-dihydro-2H-benzo[b][1,4]oxazin-2-yl)butanoate]	> 6.30	5.30 to 6.30
CCC(=Cc1ccc2c(c1)N(S(=O)(=O)c1cccc(C(F)(F)F)c1)C[C@H](CCCC(=O)O)O2)CC [Example 195F, (S)-4-(6-(2-ethylbut-1-en-1-yl)-4-((3-(trifluoromethyl)phenyl)-sulfonyl)-3,4-dihydro-2H-benzo[b][1,4]oxazin-2-yl)butanoic acid]	> 6.30	> 6.30
